We go through 1 compound from US20140158116A1, “INHIBITING TRPA1 FOR THE TREATMENT OF ASTHMA” (Cubist Pharmaceuticals, Inc., priority 2012, published 2014).

pIC50: −log10 of the molar value. Some results are limits rather than exact numbers.

One assay deals with T1, hTRPC5 (Homo sapiens, UniProt Q9UL62).
T1 sequence (Q9UL62 1-973): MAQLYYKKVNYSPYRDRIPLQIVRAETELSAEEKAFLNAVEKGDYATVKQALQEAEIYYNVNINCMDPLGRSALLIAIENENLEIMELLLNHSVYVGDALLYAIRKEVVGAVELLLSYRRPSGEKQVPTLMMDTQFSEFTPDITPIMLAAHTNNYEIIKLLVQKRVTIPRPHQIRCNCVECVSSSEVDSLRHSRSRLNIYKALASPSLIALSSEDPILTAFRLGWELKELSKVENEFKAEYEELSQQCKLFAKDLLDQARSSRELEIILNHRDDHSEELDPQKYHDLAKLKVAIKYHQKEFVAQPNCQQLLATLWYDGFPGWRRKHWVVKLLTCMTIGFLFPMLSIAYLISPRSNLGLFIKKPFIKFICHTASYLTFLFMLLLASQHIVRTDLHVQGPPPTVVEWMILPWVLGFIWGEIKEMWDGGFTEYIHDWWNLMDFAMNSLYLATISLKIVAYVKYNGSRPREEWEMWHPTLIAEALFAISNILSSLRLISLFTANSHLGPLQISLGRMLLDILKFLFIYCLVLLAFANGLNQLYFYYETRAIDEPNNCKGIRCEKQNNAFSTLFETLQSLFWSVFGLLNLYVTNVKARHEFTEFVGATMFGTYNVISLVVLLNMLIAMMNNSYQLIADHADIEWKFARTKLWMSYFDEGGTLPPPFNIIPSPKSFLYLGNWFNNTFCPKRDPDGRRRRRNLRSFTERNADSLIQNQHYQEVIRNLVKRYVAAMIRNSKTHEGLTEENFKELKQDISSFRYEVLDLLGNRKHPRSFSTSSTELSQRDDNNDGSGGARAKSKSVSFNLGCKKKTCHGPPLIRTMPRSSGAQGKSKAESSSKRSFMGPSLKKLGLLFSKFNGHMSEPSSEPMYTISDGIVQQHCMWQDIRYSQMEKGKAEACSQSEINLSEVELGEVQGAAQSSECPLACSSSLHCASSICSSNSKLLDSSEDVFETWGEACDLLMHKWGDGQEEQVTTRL
In words: Patch clamp selectivity, hTRPC5. The class given is cell-based. Here is the method:
(§1) Data for TRPA1 inhibition and the selectivity of TRPA1 inhibition was obtained by this method for the compound of Formula (Ia) and included in Table 1 and Table 2. All currents were recorded in whole-cell configuration using EPC-9 and EPC-10 amplifiers and Patchmaster software (HEKA). […] The standard pipette solution consisted of 140 mM CsAsp, 10 mM EGTA, 10 mM HEPES, 2.27 mM MgCl2, 1.91 mM CaCl2, 4 mM MgATP, and 0.1-0.3 mM Na2GTP, with pH adjusted to 7.2 with CsOH. In addition, a solution containing 145 mM CsCl, 10 mM HEPES, 10 mM EGTA and 1 mM MgCl2 (pH 7.2 adjusted with CsOH) can be used. The standard bath solution contained 150 mM NaCl, 10 mM HEPES, 10 mM glucose, 4.5 mM KCl, 1 mM EGTA, 3 mM MgCl2, with pH adjusted to 7.4 with NaOH. In some instances, 2 mM CaCl2 was added in place of EGTA and the concentration of MgCl2 was reduced to 1 mM.
(§2) Data were collected either by continuous recordings at −60 mV or by applying voltage ramps from a holding potential of 0 mV every 4 s. […] Inward and outward currents were analyzed from the ramps at −80 and 80 mV, respectively. […]
(§3) Solutions were switched using a gravity-fed continuous focal perfusion system. […] Temperatures were confirmed using a thermistor (Warner Instruments, TA-29), with temperatures at the recorded cell estimated to be within +/−2° C. of those reported. […]

For a further assay, the target named is hTRPV1 (Homo sapiens, UniProt Q8NER1). In words: Patch clamp selectivity, hTRPV1. The class given is cell-based. The method, then: as §1, §2, §3
Sequence of hTRPV1 (Q8NER1 whole entry): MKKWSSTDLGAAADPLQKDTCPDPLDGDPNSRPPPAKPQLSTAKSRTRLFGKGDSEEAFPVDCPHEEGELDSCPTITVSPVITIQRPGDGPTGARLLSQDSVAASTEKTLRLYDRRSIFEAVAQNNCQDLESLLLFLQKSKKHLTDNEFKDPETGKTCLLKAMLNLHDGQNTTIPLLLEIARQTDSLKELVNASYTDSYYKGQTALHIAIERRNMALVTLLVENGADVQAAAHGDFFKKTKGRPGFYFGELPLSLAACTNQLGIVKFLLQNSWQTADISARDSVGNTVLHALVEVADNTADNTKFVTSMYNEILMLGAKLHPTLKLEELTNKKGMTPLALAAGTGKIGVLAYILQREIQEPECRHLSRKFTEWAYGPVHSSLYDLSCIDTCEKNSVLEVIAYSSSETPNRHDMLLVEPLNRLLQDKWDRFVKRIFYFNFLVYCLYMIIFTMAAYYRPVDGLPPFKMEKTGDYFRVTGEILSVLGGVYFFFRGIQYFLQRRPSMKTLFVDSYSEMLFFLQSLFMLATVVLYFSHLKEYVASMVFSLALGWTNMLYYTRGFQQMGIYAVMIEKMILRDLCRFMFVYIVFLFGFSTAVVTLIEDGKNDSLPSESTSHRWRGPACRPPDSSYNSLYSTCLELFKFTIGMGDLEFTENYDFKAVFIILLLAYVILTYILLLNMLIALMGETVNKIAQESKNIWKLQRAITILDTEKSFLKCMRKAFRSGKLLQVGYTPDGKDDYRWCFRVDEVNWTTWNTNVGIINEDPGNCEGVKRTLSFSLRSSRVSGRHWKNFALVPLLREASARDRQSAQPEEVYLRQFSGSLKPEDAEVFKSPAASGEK

As a reminder, the pIC50 is the IC50 on a negative log10 scale, so that one unit is a factor of ten. The low end stands for a large IC50, the high end for a small IC50. Regarding `C[C@H]1CCCN1c1ncc(-c2cccc(NC(=O)Cn3cnc4c3c(=O)n(C)c(=O)n4C)n2)cn1` [Formula (Ia)], the “Fold Selectivity Compared to TRPA1” value at hTRPC5 and on hTRPV1 was over 100 fold throughout. In addition, the pIC50 is under 5.00 against hTRPC5 (80 micromolar LaCl3, Inward (−80 mV)) and under 5.00 against hTRPV1 (500 nanomolar Capsaicin, Inward (−80 mV)).
